Assays:
MST1R = MST1R (Homo sapiens, UniProt Q04912); test: Mobility shift assay, MST1R kinase inhibition; type: biochemical; details: mean of two independent experiments
Protocol: (§1) Kinase inhibitory activity against HGFR, MST1R, ABL, PDGFRβ, AXL, FLT3, RET, c-Src, and VEGFR-2 was evaluated by the mobility shift assay. Detailed operation could be found in our previous research.

HCT-116 cells = test: MTT assay, cytotoxic activity against HCT-116; type: cell-based; details: Homo sapiens, average of three separate determinations, SD shown
Excerpt: (§2) Taking lead compound BC2021-104511-15i, Fruquintinib and Regorafenib as positive controls, the cytotoxic activity against HT-29, HCT-116, COLO-205 and FHC cell lines by MTT assay. Detailed operation could be found in our previous study.

COLO 205 cells = test: MTT assay, cytotoxic activity against COLO 205; type: cell-based; details: MTT, average of three separate determinations, SD shown
Excerpt: as §2

HT-29 cells = test: MTT assay, cytotoxic activity against HT-29; type: cell-based, human; details: SD shown
Excerpt: as §2

HGFR = HGFR (Homo sapiens, UniProt P08581); test: Mobility shift assay, HGFR kinase inhibition; type: biochemical; details: mean of two independent experiments
Protocol: as §1

[1] = MTT assay, cytotoxicity against FHC cells; type: cell-based; details: FHC cells (normal colorectal mucosa epithelial cells); human normal colorectal mucosa epithelial cells; average of three separate determinations
Protocol: In order to investigate the cell selectivity index, the cytotoxicity of potent compounds against human normal colorectal mucosa epithelial cell FHC cells was determined.
as §2

Ron (MST1R) = details: Figure 1; cited from earlier work
FLT3 = target: T1, FLT3 (Homo sapiens, UniProt P36888); test: Mobility shift assay, FLT3; type: biochemical; details: mean of two independent experiments, SD shown
T1 sequence (P36888 27-993): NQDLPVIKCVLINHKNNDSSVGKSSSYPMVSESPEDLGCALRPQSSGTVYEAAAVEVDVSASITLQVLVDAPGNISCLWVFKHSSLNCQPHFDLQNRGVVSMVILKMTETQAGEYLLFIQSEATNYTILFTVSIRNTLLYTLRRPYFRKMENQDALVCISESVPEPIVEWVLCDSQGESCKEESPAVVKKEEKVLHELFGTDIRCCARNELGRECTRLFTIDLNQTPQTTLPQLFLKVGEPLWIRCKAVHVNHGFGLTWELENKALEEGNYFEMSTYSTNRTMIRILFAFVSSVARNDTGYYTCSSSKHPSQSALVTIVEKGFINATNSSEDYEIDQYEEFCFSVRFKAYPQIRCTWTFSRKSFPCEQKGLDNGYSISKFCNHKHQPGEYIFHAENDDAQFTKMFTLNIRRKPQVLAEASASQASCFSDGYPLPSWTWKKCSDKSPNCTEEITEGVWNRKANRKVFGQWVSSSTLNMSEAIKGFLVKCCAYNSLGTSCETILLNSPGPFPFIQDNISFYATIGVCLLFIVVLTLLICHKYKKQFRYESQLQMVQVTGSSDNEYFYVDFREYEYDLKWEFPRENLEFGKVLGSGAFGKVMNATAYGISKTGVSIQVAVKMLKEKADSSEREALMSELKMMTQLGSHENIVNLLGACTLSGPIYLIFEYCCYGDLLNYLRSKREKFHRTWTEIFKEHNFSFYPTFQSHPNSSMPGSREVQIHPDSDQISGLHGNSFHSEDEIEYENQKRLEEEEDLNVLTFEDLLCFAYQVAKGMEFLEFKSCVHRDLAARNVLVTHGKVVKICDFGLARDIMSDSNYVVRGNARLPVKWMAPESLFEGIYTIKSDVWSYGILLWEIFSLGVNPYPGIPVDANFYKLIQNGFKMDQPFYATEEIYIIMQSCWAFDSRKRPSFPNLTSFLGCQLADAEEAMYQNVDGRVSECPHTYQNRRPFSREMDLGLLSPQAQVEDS
Protocol: as §1

RET = RET (Homo sapiens, UniProt P07949); test: Mobility shift assay, RET; type: biochemical; details: mean of two independent experiments, SD shown
Protocol: as §1

ABL = ABL (Homo sapiens, UniProt P00519); test: Mobility shift assay, ABL; type: biochemical; details: mean of two independent experiments, SD shown
Protocol: as §1

VEGFR-2 = VEGFR-2 (Homo sapiens, UniProt P35968); test: Mobility shift assay, VEGFR-2; type: biochemical; details: mean of two independent experiments, SD shown
Protocol: as §1

AXL = target: T2, AXL (Homo sapiens, UniProt P30530); test: Mobility shift assay, AXL; type: biochemical; details: mean of two independent experiments, SD shown
T2 sequence (P30530 26-894): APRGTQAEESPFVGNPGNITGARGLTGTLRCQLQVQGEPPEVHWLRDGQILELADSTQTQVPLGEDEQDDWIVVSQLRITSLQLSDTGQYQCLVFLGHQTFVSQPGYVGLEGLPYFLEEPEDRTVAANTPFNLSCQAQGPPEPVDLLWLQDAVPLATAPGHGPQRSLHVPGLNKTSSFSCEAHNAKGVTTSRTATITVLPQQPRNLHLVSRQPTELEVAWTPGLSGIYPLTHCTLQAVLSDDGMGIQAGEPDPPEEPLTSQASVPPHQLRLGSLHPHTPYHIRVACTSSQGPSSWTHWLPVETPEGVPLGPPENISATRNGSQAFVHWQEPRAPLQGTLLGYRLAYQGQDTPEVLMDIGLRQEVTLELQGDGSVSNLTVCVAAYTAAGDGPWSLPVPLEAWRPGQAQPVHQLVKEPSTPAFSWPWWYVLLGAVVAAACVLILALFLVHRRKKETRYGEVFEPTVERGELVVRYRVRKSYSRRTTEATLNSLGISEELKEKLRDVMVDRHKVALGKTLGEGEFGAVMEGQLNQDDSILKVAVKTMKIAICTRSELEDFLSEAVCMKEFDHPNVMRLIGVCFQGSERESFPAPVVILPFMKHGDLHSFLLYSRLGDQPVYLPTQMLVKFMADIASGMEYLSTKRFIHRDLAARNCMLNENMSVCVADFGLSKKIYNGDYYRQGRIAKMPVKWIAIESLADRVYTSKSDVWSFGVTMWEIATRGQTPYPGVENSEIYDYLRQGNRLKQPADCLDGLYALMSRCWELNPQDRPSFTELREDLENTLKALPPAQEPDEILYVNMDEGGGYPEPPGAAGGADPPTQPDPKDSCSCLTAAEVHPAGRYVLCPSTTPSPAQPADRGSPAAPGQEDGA
Protocol: as §1

c-Src = c-Src (Homo sapiens, UniProt P12931); test: Mobility shift assay, c-Src; type: biochemical; details: mean of two independent experiments, SD shown
Protocol: as §1

PDGFRβ = PDGFRβ (Homo sapiens, UniProt P09619); test: Mobility shift assay, PDGFRβ; type: biochemical; details: mean of two independent experiments, SD shown
Protocol: as §1

[2] = Homo sapiens, HT-29, average of three separate determinations

HGFR, sequence (P08581 25-1390): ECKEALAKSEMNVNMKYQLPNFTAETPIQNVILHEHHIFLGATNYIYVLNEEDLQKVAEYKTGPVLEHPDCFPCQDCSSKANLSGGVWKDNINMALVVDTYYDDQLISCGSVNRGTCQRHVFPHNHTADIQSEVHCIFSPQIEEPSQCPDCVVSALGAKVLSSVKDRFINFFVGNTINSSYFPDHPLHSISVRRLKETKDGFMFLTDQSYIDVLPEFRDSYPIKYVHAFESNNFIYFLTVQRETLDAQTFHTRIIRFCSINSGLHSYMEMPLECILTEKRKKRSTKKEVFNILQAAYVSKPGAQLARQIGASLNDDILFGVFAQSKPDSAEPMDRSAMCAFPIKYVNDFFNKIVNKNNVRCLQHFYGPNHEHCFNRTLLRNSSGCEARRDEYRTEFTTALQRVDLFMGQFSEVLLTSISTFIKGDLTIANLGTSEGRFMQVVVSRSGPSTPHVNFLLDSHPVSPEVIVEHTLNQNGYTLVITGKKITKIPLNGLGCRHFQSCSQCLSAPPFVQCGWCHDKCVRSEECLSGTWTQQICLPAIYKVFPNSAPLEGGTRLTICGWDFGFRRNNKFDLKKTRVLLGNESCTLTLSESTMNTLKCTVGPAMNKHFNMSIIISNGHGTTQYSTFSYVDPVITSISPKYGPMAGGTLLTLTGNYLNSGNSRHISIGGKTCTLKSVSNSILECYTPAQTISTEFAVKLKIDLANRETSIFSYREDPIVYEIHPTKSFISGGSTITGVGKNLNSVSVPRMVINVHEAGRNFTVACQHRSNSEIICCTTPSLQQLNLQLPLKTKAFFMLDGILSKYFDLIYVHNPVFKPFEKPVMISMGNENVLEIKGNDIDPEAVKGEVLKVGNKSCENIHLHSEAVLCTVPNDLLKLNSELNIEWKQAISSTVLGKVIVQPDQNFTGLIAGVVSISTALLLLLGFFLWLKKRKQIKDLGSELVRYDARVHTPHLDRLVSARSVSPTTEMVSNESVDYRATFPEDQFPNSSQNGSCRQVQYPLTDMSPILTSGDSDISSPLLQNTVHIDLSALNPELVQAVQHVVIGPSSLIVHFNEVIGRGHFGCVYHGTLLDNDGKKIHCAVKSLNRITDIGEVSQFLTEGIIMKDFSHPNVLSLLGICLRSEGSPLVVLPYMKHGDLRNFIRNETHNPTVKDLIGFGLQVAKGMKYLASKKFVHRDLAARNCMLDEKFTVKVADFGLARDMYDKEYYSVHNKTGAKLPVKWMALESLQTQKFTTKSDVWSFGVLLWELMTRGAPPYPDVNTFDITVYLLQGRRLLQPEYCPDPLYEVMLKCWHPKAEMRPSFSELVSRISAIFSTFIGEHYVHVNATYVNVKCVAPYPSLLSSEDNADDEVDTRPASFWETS
MST1R, sequence (Q04912 25-1400): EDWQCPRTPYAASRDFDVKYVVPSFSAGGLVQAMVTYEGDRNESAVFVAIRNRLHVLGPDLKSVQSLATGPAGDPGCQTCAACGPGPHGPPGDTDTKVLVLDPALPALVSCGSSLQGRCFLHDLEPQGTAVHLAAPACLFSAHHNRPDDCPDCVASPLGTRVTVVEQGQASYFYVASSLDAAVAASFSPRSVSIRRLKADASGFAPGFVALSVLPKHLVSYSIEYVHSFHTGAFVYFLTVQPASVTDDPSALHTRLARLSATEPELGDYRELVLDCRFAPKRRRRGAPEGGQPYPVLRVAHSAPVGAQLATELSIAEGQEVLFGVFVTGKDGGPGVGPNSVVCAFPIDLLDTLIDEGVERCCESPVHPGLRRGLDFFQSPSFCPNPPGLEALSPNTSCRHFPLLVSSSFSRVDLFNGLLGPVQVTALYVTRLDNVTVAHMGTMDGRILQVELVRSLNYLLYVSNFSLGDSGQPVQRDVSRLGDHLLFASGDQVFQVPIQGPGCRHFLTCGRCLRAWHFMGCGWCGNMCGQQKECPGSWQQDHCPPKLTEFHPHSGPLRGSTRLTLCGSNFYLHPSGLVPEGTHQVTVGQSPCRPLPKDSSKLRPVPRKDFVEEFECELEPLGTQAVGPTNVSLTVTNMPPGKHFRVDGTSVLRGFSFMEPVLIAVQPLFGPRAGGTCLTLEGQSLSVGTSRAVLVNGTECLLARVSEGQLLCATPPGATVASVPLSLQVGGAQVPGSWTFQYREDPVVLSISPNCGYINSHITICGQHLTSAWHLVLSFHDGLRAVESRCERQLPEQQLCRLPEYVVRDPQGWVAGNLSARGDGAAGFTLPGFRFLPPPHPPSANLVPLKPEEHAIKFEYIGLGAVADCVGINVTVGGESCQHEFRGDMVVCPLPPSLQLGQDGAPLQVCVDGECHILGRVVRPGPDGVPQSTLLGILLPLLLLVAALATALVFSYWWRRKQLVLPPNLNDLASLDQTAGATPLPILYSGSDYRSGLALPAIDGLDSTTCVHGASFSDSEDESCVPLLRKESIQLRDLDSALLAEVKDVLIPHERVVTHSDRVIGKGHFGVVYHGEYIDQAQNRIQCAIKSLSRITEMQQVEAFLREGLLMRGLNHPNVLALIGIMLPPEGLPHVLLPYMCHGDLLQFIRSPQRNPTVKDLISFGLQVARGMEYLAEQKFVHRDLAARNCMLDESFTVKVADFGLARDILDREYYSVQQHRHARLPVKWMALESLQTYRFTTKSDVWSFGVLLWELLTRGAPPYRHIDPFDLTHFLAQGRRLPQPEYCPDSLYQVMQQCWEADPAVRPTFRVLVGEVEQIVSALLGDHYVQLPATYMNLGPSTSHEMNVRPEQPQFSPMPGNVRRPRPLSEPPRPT
VEGFR-2, sequence (P35968 20-1356): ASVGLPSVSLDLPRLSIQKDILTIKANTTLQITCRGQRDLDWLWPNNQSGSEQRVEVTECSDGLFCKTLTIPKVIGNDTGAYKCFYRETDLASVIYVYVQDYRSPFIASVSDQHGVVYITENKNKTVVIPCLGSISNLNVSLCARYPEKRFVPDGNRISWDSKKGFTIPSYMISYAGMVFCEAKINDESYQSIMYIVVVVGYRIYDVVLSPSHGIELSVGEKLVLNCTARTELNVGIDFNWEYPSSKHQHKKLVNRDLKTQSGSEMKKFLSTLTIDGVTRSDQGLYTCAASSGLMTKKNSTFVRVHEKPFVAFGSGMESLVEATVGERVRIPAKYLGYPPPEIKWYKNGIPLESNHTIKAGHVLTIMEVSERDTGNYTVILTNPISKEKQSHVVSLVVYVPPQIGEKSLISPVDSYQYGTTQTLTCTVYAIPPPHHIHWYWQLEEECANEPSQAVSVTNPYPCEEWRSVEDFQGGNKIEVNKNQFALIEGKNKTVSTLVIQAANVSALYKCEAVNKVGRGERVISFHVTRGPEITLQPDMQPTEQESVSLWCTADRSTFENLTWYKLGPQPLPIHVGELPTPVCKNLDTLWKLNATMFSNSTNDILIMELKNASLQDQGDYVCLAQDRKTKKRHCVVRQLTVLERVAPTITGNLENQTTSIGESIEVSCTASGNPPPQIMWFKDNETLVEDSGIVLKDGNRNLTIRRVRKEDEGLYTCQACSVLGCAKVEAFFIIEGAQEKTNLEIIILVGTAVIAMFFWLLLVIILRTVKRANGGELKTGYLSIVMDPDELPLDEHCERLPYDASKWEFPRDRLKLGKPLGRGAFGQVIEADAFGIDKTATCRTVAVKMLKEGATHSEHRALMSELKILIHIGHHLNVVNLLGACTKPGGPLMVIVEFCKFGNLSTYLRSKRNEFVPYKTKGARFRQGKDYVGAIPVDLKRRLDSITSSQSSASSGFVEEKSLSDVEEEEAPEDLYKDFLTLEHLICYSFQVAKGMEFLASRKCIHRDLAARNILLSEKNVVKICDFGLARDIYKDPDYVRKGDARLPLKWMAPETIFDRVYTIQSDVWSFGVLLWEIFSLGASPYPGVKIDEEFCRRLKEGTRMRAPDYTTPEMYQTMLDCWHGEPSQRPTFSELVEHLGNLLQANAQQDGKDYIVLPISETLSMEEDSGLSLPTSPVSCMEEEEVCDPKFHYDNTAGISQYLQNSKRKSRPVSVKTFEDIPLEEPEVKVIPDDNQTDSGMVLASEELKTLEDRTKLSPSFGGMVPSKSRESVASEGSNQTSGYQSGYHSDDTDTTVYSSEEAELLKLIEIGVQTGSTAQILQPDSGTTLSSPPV
c-Src, sequence (P12931 whole entry): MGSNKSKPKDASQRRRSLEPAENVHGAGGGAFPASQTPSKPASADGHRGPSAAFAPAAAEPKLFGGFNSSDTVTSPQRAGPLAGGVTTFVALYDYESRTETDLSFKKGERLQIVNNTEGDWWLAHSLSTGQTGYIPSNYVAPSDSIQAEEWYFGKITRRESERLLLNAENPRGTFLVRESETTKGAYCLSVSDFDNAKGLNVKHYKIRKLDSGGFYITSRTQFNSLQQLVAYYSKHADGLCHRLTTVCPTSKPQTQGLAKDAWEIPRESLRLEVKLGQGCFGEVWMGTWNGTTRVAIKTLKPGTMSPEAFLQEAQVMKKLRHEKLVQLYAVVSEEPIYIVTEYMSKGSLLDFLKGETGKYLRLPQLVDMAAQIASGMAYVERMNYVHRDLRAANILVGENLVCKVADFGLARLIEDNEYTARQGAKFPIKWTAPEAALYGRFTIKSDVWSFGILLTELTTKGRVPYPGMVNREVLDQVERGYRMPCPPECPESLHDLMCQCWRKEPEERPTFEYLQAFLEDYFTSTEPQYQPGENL

Row | IC50 (MST1R) [nM] | IC50 (HGFR) [nM] | Molecule | IC50 (HCT-116 cells) [nM] | IC50 (COLO 205 cells; Homo sapiens, COLO 205) [nM] | IC50 (HT-29 cells; [2]) [nM] | IC50 [1] [nM] | other results
1 | 110 | 180 | COc1cc2c(Oc3ccc(NC(=O)NN4C(=O)CSC4c4c(F)cccc4F)cc3F)ccnc2cc1OC1CCN(C(=O)COC(C)=O)CC1 (stereo not drawn) [Compound 10g, 2–(4-((4–(4-(3–(2-(2,6-Difluorophenyl)-4-oxothiazolidin-3-yl)ureido)-2-fluorophenoxy)-6-methoxyquinolin-7-yl)oxy)piperidin-1-yl)-2-oxoethyl acetate] | 4800 ± 440 | 590 ± 45 | 6900 ± 470 |  | 
2 | 78 | 140 | COc1cc2c(Oc3ccc(NC(=O)NN4C(=O)CSC4c4c(F)cccc4F)cc3F)ccnc2cc1OC1CCN(CC(=O)N2CCOCC2)CC1 (stereo not drawn) [Compound 10f, 1–(2-(2,6-Difluorophenyl)-4-oxothiazolidin-3-yl)-3–(3-fluoro-4-((6-methoxy-7-((1–(2-morpholino-2-oxoethyl)piperidin-4-yl)oxy)quinolin-4-yl)oxy)phenyl)urea] | 2600 ± 270 | 420 ± 34 | 1900 ± 110 | > 10000 | 
3 |  |  | CNC(=O)c1cc(Oc2ccc(NC(=O)Nc3ccc(Cl)c(C(F)(F)F)c3)c(F)c2)ccn1 [Regorafenib, reference compound] | 8200 ± 750 | > 10000 | 8490 |  | 
4 |  |  | CCOc1ccn(-c2ccc(F)cc2)c(=O)c1C(=O)Nc1ccc(Oc2ccnc(N)c2Cl)c(F)c1 [BMS-777607] |  |  |  |  | IC50 (Ron (MST1R)): 1.8 nM
5 | 72 | 140 | CNC(=O)CN1CCC(Oc2cc3nccc(Oc4ccc(NC(=O)NN5C(=O)CSC5c5c(F)cccc5F)cc4F)c3cc2OC)CC1 (stereo not drawn) [Compound 10c, 2–(4-((4–(4-(3–(2-(2,6-Difluorophenyl)-4-oxothiazolidin-3-yl)ureido)-2-fluorophenoxy)-6-methoxyquinolin-7-yl)oxy)piperidin-1-yl)-N-methylacetamide] | 5900 ± 530 | 440 ± 38 | 4100 ± 270 |  | 
6 |  |  | COc1cc2c(Nc3ccc(NC(=O)NN4C(=O)CSC4c4c(F)cccc4F)cc3F)ccnc2cc1OC1CCN(CC(N)=O)CC1 (stereo not drawn) [Compound 10i, 2–(4-((4-((4–(3-(2–(2,6-Difluorophenyl)-4-oxothiazolidin-3-yl)ureido)-2-fluorophenyl)amino)-6-methoxyquinolin-7-yl)oxy)piperidin-1-yl)acetamide] | > 10000 |  | > 10000 |  | 
7 |  |  | 2–(4-((4–(4-(3–(2-(2,6-Difluorophenyl)-4-oxotetrahydrothiophen-3-yl)ureido)-2-fluorophenoxy)-6-methoxyquinazolin-7-yl)oxy)piperidin-1-yl)acetamide [Compound 19] |  |  |  |  | IC50 (COLO 205 cells): 5300 ± 470 nM; IC50 (HT-29 cells; average of three separate determinations): 8600 ± 670 nM
8 | 160 | 220 | COc1cc2c(Oc3ccc(NC(=O)NN4C(=O)CSC4c4c(F)cccc4F)cc3F)ccnc2cc1OC1CCN(C(=O)CO)CC1 (stereo not drawn) [Compound 10h, 1–(2-(2,6-Difluorophenyl)-4-oxothiazolidin-3-yl)-3–(3-fluoro-4-((7-((1–(2-hydroxyacetyl)piperidin-4-yl)oxy)-6-methoxyquinolin-4-yl)oxy)phenyl)urea] |  | 850 ± 73 | 6500 ± 430 | > 10000 | 
9 |  |  | CNC(=O)c1c(C)oc2cc(Oc3ncnc4cc(OC)c(OC)cc34)ccc12 [Fruquintinib, reference compound] | 2200 ± 170 | > 10000 | 1570 |  | 
10 | 440 | 900 | COc1cc2c(Oc3ccc(NC(=O)NN4C(=O)CSC4c4c(F)cccc4F)cc3F)ccnc2cc1OC1CCN(C(=O)CN(C)C)CC1 (stereo not drawn) [Compound 10d, 1–(2-(2,6-Difluorophenyl)-4-oxothiazolidin-3-yl)-3–(4-((7-((1-(dimethylglycyl)piperidin-4-yl)oxy)-6-methoxyquinolin-4-yl)oxy)-3-fluorophenyl)urea] | 2400 ± 260 | 4900 ± 380 | 2900 ± 190 | > 10000 | 
11 | 85 | 180 | COCC(=O)N1CCC(Oc2cc3nccc(Oc4ccc(NC(=O)NN5C(=O)CSC5c5c(F)cccc5F)cc4F)c3cc2OC)CC1 (stereo not drawn) [Compound 10b, 1–(2-(2,6-Difluorophenyl)-4-oxothiazolidin-3-yl)-3–(3-fluoro-4-((6-methoxy-7-((1–(2-methoxyacetyl)piperidin-4-yl)oxy)quinolin-4-yl)oxy)phenyl)urea] | 3700 ± 340 | 310 ± 21 | 3000 ± 240 | > 10000 | IC50 (FLT3): > 10000 nM; IC50 (RET): 1520 ± 140 nM; IC50 (ABL): 3280 ± 260 nM; IC50 (VEGFR-2): 2360 ± 180 nM; IC50 (AXL): 1500 ± 150 nM; IC50 (c-Src): 690 ± 57 nM; IC50 (PDGFRβ): 1200 ± 95 nM
12 |  |  | Cn1cc(-c2cnc3ccc4ccc(CS(=O)(=O)NCc5ccccn5)cc4c(=O)c3c2)cn1 [MK-8033, 1-[3-(1-Methyl-1H-pyrazol-4-yl)-5-oxo-5H-benzo[4,5]cyclohepta[1,2-b]pyridin-7-yl]-N-(pyridin-2-ylmethyl)methanesulfonamide] |  |  |  |  | IC50 (Ron (MST1R)): 7 nM
13 | 110 | 270 | CCN(CC)C(=O)N1CCC(Oc2cc3nccc(Oc4ccc(NC(=O)NN5C(=O)CSC5c5c(F)cccc5F)cc4F)c3cc2OC)CC1 (stereo not drawn) [BC2021-104511-15i, 4-((4-(4-(3-(2-(2,6-difluorophenyl)-4-oxothiazolidin-3-yl)ureido)-2-fluorophenoxy)-6-methoxyquinolin-7-yl)oxy)-N,N-diethylpiperidine-1-carboxamide, reference compound] | 4800 ± 440 | 720 ± 65 | 790 ± 58 |  | 

Source: paper PMC9448386, “Discovery of novel conjugates of quinoline and thiazolidinone urea as potential anti-colorectal cancer agent” (Journal of Enzyme Inhibition and Medicinal Chemistry, 2022)
